Measured values: patent publication US10954252B1, “Inhibitors of human immunodeficiency virus replication” (ViiV HEALTHCARE UK (NO.5) LIMITED, priority 2017, dated 2021)

Tests used:
[1] = Compound cytotoxicity, XTT-based colorimetric assay; type: cell-based; settings: human, uninfected MT2 cells, Table 1, day 4, XTT
In short: (§1)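 CC50 from uninfected MT2 cells run under the antiviral-assay protocol without virus. Viability read on day 4 by XTT colorimetric assay.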

[2] = test system: recombinant NL4-3 virus (nef section replaced with Renilla luciferase gene) in MT-2 cells; assay: HIV cell culture assay (antiviral activity, luciferase readout); type: cell-based; settings: MT-2 cells infected for 4-5 days with recombinant NL4-3 luciferase virus
In short: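 NL4-3 reporter virus carrying Renilla luciferase in place of part of nef, produced in 293T cells, was used to infect MT-2 cells for 4-5 days with serial compound dilutions. Luciferase activity was read with a live-cell substrate; EC50 derived from the median effect equation.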

[3] = Stereoisomer interconversion on storage in MeOH at ambient condition; type: physicochemical; settings: stored in MeOH at ambient condition
uninfected MT2 cells = assay: Compound cytotoxicity, XTT-based colorimetric assay; type: cell-based
In short: as §1

In the case of `Cn1nc(NS(C)(=O)=O)c2c(Cl)ccc(-n3c([C@H](Cc4cc(F)cc(F)c4)NC(=O)Cn4nc(C(F)F)c5c4C(F)(F)C4CC54)nc4nc(C(F)(F)F)ccc4c3=O)c21` (stereo in doubt) [Example 11.2, N—((S)-1-(3-(4-chloro-1-methyl-3-(methylsulfonamido)-1H-indazol-7-yl)-4-oxo-7-(trifluoromethyl)-3,4-dihydropyrido[2,3-d]pyrimidin-2-yl)-2-(3,5-difluorophenyl)ethyl)-2-((3bS,4aR)-3-(difluoromethyl)-5,5-difluoro-3b,4,4a,5-tetrahydro-1H-cyclopropa[3,4]cyclopenta[1,2-c]pyrazol-1-yl)acetamide], the CC50 at 4 days [1] is reported as greater than 10000 nM, the EC50 ([2]; Renilla, NL43, Table 1) is reported as 51 nM and the “conversion to another stereoisomer on storage” value (“conversion” for short) [3] is reported as “converts slowly to one of the isomers in Example 11.1”.
With `Cn1nc(NS(C)(=O)=O)c2c(Cl)ccc(-n3c([C@H](Cc4cc(F)cc(F)c4)NC(=O)Cn4nc(C(F)F)c5c4C(F)(F)C4CC54)nc4nc(Cl)ccc4c3=O)c21` (stereo in doubt) [Example 12.2, N—((S)-1-(7-chloro-3-(4-chloro-1-methyl-3-(methylsulfonamido)-1H-indazol-7-yl)-4-oxo-3,4-dihydropyrido[2,3-d]pyrimidin-2-yl)-2-(3,5-difluorophenyl)ethyl)-2-((3bS,4aR)-3-(difluoromethyl)-5,5-difluoro-3b,4,4a,5-tetrahydro-1H-cyclopropa[3,4]cyclopenta[1,2-c]pyrazol-1-yl)acetamide] the CC50 at 4 days [1] was greater than 3300 nM, the EC50 ([2]; Renilla, NL43, Table 1) was 42 nM and the “conversion” value [3] was “converts slowly to one of the stereoisomers in Example 12.1”.
In the case of `Cn1nc(NS(C)(=O)=O)c2c(Cl)ccc(-n3c(C(Cc4cc(F)cc(F)c4)NC(=O)Cn4nc(C(F)F)c5c4C(F)(F)[C@@H]4C[C@H]54)nc4nc(C(F)(F)F)ccc4c3=O)c21` (mixture of isomers) [Example 11.1, N—((S)-1-(3-(4-chloro-1-methyl-3-(methylsulfonamido)-1H-indazol-7-yl)-4-oxo-7-(trifluoromethyl)-3,4-dihydropyrido[2,3-d]pyrimidin-2-yl)-2-(3,5-difluorophenyl)ethyl)-2-((3bS,4aR)-3-(difluoromethyl)-5,5-difluoro-3b,4,4a,5-tetrahydro-1H-cyclopropa[3,4]cyclopenta[1,2-c]pyrazol-1-yl)acetamide], the CC50 at 4 days [1] is reported as greater than 10000 nM, the EC50 ([2]; Renilla, NL43, Table 1) is reported as 520 nM and the “conversion” value [3] is reported as “one of the isomers in Example 11.1 converts to Example 11.2”.
Molecule `COc1c(F)ccc2c(=O)n(-c3ccc(Cl)c4c(NS(C)(=O)=O)nn(C)c34)c([C@H](Cc3cc(F)cc(F)c3)NC(=O)Cn3ccc(C4CC4)n3)nc12` (single isomer, unassigned) [Example 112] has a CC50 (uninfected MT2 cells; Table 1a, day 4, XTT) greater than 1000 nM and an EC50 ([2]; Table 1a) of 0.51 nM.
Molecule `Cn1nc(NS(C)(=O)=O)c2c(Cl)ccc(-c3c(C(Cc4cc(F)cc(F)c4)NC(=O)Cn4nc(C(F)F)c5c4C(F)(F)[C@@H]4C[C@H]54)ncc4[nH]cnc34)c21` (single isomer, unassigned) [Example 7.6] has a CC50 (uninfected MT2 cells; Table 1, day 4, XTT) greater than 10000 nM and an EC50 ([2]; Table 1) of 8.1 nM.
`O=C(Cn1nc(C(F)F)c2c1C(F)(F)[C@@H]1C[C@H]21)N[C@H](Cc1cc(F)cc(F)c1)c1nc2cn[nH]c2cc1-c1ccc2scnc2c1` (single isomer, unassigned) [Example 3.2] showed a CC50 (uninfected MT2 cells; Table 1, day 4, XTT) of 12700 nM and an EC50 ([2]; Table 1) of 960 nM.
In the case of `Cn1ccc2nc([C@H](Cc3cc(F)cc(F)c3)NC(=O)Cn3nc(C(F)F)c4c3C(F)(F)[C@@H]3C[C@H]43)c(-c3ccc(Cl)c4c(NS(C)(=O)=O)nn(C)c34)cc21` (single isomer, unassigned) [Example 120], the CC50 (uninfected MT2 cells; Table 1a, day 4, XTT) is reported as greater than 10000 nM and the EC50 ([2]; Table 1a) is reported as 0.0753 nM.
For `Cc1cccc2c(=O)n(-c3ccc(Cl)c4c(NS(C)(=O)=O)nn(C)c34)c([C@H](Cc3cc(F)cc(F)c3)NC(=O)Cn3nc(C(F)F)c4c3C(F)(F)[C@@H]3C[C@H]43)nc12` (single isomer, unassigned) [Example 98], the CC50 (uninfected MT2 cells; Table 1a, day 4, XTT) was greater than 1000 nM and the EC50 ([2]; Table 1a) was 0.747 nM.
For `Cn1nc(NS(C)(=O)=O)c2c(Cl)ccc(-c3cc4ccccc4nc3C(Cc3cc(F)cc(F)c3)NC(=O)Cn3nc(C(F)F)c4c3C(F)(F)[C@@H]3C[C@H]43)c21` (single isomer, unassigned) [Example 8.2], the CC50 (uninfected MT2 cells; Table 1, day 4, XTT) was greater than 10000 nM and the EC50 ([2]; Table 1) was 180 nM.
For `Cc1nc2nc(C(Cc3cc(F)cc(F)c3)NC(=O)Cn3nc(C(F)F)c4c3CCC4)c(-c3ccc(Cl)c4c(NS(C)(=O)=O)nn(C)c34)cc2s1` (single isomer, unassigned) [Example 2.4, N-(1-(6-(4-chloro-1-methyl-3-(methylsulfonamido)-1H-indazol-7-yl)-2-methylthiazolo[4,5-b]pyridin-5-yl)-2-(3,5-difluorophenyl)ethyl)-2-(3-(difluoromethyl)-5,6-dihydrocyclopenta[c]pyrazol-1(4H)-yl)acetamide], the CC50 (uninfected MT2 cells; Table 1, day 4, XTT) was greater than 10000 nM and the EC50 ([2]; Table 1) was 690 nM.
Molecule `COc1cc(OC)c2c(=O)n(-c3ccc(Cl)c4c(NS(C)(=O)=O)nn(C)c34)c([C@H](Cc3cc(F)cc(F)c3)NC(=O)Cn3nc(C(F)F)c4c3C(F)(F)[C@@H]3C[C@H]43)nc2c1` (single isomer, unassigned) [Example 182] has a CC50 (uninfected MT2 cells; Table 1a, day 4, XTT) greater than 1000 nM and an EC50 ([2]; Table 1a) of 0.061 nM.
`Cn1nc(NS(C)(=O)=O)c2c(Cl)ccc(-n3c([C@H](Cc4cc(F)cc(F)c4)NC(=O)Cn4nc(C(F)F)c5c4C(F)(F)[C@@H]4C[C@H]54)nc4cc(C(F)(F)F)ccc4c3=O)c21` (single isomer, unassigned) [Example 138] gave a CC50 (uninfected MT2 cells; Table 1a, day 4, XTT) greater than 1000 nM and an EC50 ([2]; Table 1a) of 0.042 nM.
Work on `Cn1nc(NS(C)(=O)=O)c2c(Cl)ccc(-n3c([C@H](Cc4cc(F)cc(F)c4)NC(=O)Cn4nc(C(F)F)c5c4C(F)(F)[C@@H]4C[C@H]54)nc4cc(C(C)(C)C)ccc4c3=O)c21` (mixture of isomers) [Example 216, N—((S)-1-(7-(tert-Butyl)-3-(4-chloro-1-methyl-3-(methylsulfonamido)-1H-indazol-7-yl)-4-oxo-3,4-dihydroquinazolin-2-yl)-2-(3,5-difluorophenyl)ethyl)-2-((3bS,4aR)-3-(difluoromethyl)-5,5-difluoro-3b,4,4a,5-tetrahydro-1H-cyclopropa[3,4]cyclopenta[1,2-c]pyrazol-1-yl)acetamide] yielded a CC50 (uninfected MT2 cells; Table 1a, day 4, XTT) greater than 1000 nM and an EC50 ([2]; Table 1a) of 0.059 nM.
`COc1c(F)cc2c(=O)n(-c3ccc(Cl)c4c(NS(C)(=O)=O)nn(C)c34)c([C@H](Cc3cc(F)cc(F)c3)NC(=O)Cn3ccc(C4CC4)n3)nc2c1F` (single isomer, unassigned) [Example 116] showed a CC50 (uninfected MT2 cells; Table 1a, day 4, XTT) greater than 1000 nM and an EC50 ([2]; Table 1a) of 0.231 nM.
Molecule `Cn1nc(NS(C)(=O)=O)c2c(Cl)ccc(-c3cc4scnc4nc3C(Cc3cc(F)cc(F)c3)NC(=O)Cn3nc(C(F)F)c4c3C(F)(F)[C@@H]3C[C@H]43)c21` (single isomer, unassigned) [Example 1.5] has a CC50 (uninfected MT2 cells; Table 1, day 4, XTT) greater than 10000 nM and an EC50 ([2]; Table 1) of 1150 nM.
For `Cn1nc(NS(C)(=O)=O)c2c(Cl)ccc(-n3c([C@H](Cc4cc(F)cc(F)c4)NC(=O)Cn4nc(C(F)F)c5c4C(F)(F)[C@@H]4C[C@H]54)nc4cccc(C(F)(F)F)c4c3=O)c21` (single isomer, unassigned) [Example 128], the CC50 (uninfected MT2 cells; Table 1a, day 4, XTT) was greater than 1000 nM and the EC50 ([2]; Table 1a) was 0.62 nM.
Work on `COc1ccc2c(=O)n(-c3ccc(Cl)c4c(NS(C)(=O)=O)nn(CC(F)F)c34)c([C@H](Cc3cc(F)cc(F)c3)NC(=O)Cn3ccc(C4CC4)n3)nc2n1` (atropisomer, axis not shown) [Example 55.2, N-[(1S)-1-{3-[4-chloro-1-(2,2-difluoroethyl)-3-methanesulfonamido-1H-indazol-7-yl]-7-methoxy-4-oxo-3H,4H-pyrido[2,3-d]pyrimidin-2-yl}-2-(3,5-difluorophenyl)ethyl]-2-(3-cyclopropyl-1H-pyrazol-1-yl)acetamide] yielded a CC50 (uninfected MT2 cells; Table 1a, day 4, XTT) greater than 1000 nM and an EC50 ([2]; Table 1a) of 0.33 nM.
